Earlier results as cited in US5750504A, “Antimicrobial proteins” (Zeneca Agrochemicals, priority 1996, dated 1998).
Where no end group is shown, it is not given here.

What was measured:
[1] = system: hyphae of Fusarium culmorum; details: Terras FRG et al, 1992; cited from earlier work
[2] = system: fungi; details: Rs-AFP-type proteins of WO93/05153; cited from earlier work

Substance	hyper-branching of hyphae of Fusarium culmorum [1]	hyperbranching of fungi [2]
Rs-AFP1: antifungal protein from Raphanus sativus seeds, SEQ ID NO 3 (ZKLCERPSGTWSGVCGNNNACKNQCINLEKARHGSCNYVFPAHKCICYFPC)	A similar effect	cause hyperbranching
Cb-AMP1: antimicrobial protein capable of isolation from Cnicus benedictus, SEQ ID NO 6 (ELCEKASKTWSGNCGNTKHCDDQCKSWEGAAHGACHVRNGKHMCFCYFNC; ends and bridges not checked; cysteine pairing not given here)		do not
Rs-AFP2: antifungal protein from Raphanus sativus seeds, SEQ ID NO 4 (ZKLCQRPSGTWSGVCGNNNACKNQCIRLEKARHGSCNYVFPAHKCICYFPC)	A similar effect	cause hyperbranching
Dm-AMP1: antimicrobial protein capable of isolation from Dahlia merckii, SEQ ID NO 5 (ELCEKASKTWSGNCGNTGHCDNQCKSWEGAAHGACHVRNGKHMCFCYFNC; ends and bridges not checked; cysteine pairing not given here)		do not
